Data: US10988459B2 (priority 2015, dated 2021)
pKi: −log10 of the molar value.

Target: human RIP1 kinase domain (2-375) (Homo sapiens (Human), UniProt Q13546)
Experiment: biochemical
Assay type: biochemical
Details: Table 1; apparent Ki (Morrison tight-binding fit); 50 nM RIP1 kinase domain, 50 uM ATP, 2 hours incubation; read-out: RIP1 Ki
How it was run: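 50 nM purified kinase domain from baculovirus-infected insect cells, incubated 2 h with compound in 50 mM Hepes pH 7.5, 30 mM MgCl2, 1 mM DTT, 50 uM ATP, 0.002% Brij-35, 0.5% DMSO. ADP formation read by Transcreener FP at 633 nm excitation. Ki^app fitted with the Morrison tight-binding equation.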

human RIP1 kinase domain (2-375), sequence (Q13546 2-375): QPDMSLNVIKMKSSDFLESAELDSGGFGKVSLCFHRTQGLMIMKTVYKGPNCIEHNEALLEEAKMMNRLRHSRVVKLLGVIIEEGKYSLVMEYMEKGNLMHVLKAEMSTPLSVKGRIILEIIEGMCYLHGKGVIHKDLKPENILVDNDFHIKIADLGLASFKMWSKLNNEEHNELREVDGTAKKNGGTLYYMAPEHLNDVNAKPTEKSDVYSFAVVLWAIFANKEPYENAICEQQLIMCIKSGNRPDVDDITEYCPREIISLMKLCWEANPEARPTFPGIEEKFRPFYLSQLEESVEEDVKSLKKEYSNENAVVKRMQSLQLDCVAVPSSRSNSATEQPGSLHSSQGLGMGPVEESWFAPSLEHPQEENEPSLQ

Compared with `CN1C(=O)[C@@H](NC(=O)c2nnc(Cc3ccccc3)[nH]2)CCn2nc(C(F)(F)F)cc21` [Example 80, (S)-5-benzyl-N-(4-methyl-5-oxo-2-(trifluoromethyl)-5,6,7,8-tetrahydro-4H-pyrazolo[1,5-a][1,3]diazepin-6-yl)-4H-1,2,4-triazole-3-carboxamide], `CN1C(=O)[C@@H](NC(=O)c2nnc3ccc(C(F)(F)F)nn23)COc2ccccc21` [Example 81, (S)-N-(5-methyl-4-oxo-2,3,4,5-tetrahydrobenzo[b][1,4]oxazepin-3-yl)-6-(trifluoromethyl)-[1,2,4]triazolo[4,3-b]pyridazine-3-carboxamide] is 0.94 log units lower in pKi: 7.19 for the first, 6.25 for the second.

For `CN1C(=O)[C@@H](NC(=O)c2nnc3ccc(C(F)(F)F)cn23)COc2ccccc21` [Example 82, (S)-N-(5-methyl-4-oxo-2,3,4,5-tetrahydrobenzo[b][1,4]oxazepin-3-yl)-6-(trifluoromethyl)-[1,2,4]triazolo[4,3-a]pyridine-3-carboxamide], the pKi was 6.41.

Same assay, conditions: human RIP1 kinase domain (2-375), 50 uM ATP, 2 hours incubation, Transcreener ADP assay; read-out: RIP1 Ki

Compared with `CN1C(=O)[C@@H](NC(=O)c2n[nH]c3ccc(C#N)cc23)COc2ccccc21` [Example 83, (S)-5-cyano-N-(5-methyl-4-oxo-2,3,4,5-tetrahydrobenzo[b][1,4]oxazepin-3-yl)-1H-indazole-3-carboxamide], `CN1C(=O)[C@@H](NC(=O)c2n[nH]c3ccc(C4CC4)cc23)COc2ccccc21` [Example 92, (S)-5-cyclopropyl-N-(5-methyl-4-oxo-2,3,4,5-tetrahydrobenzo[b][1,4]oxazepin-3-yl)-1H-indazole-3-carboxamide] is 1.11 log units higher in pKi: 6.78 for the first, 7.89 for the second.

First: CN1C(=O)[C@@H](NC(=O)c2nnc3ccc(C4CC4)cn23)COc2ccccc21 [Example 84, (S)-6-cyclopropyl-N-(5-methyl-4-oxo-2,3,4,5-tetrahydrobenzo[b][1,4]oxazepin-3-yl)-[1,2,4]triazolo[4,3-a]pyridine-3-carboxamide]
Second: Cc1ccc2snc(C(=O)N[C@H]3COc4ccccc4N(C)C3=O)c2c1 [Example 90, (S)-5-methyl-N-(5-methyl-4-oxo-2,3,4,5-tetrahydrobenzo[b][1,4]oxazepin-3-yl)benzo[d]isothiazole-3-carboxamide]
The pKi of the first is 1.88 log units lower: 5.85 for the first, 7.73 for the second.

First: CN1C(=O)C(NC(=O)c2ncn(Cc3ccccc3)n2)CCn2nc(C(F)(F)F)cc21 (stereo not shown) [Example 85, 1-benzyl-N-(4-methyl-5-oxo-2-(trifluoromethyl)-5,6,7,8-tetrahydro-4H-pyrazolo[1,5-a][1,3]diazepin-6-yl)-1H-1,2,4-triazole-3-carboxamide]
Second: CN1C(=O)[C@@H](NC(=O)c2ncn(Cc3ccccc3)n2)CCn2nc(C(F)(F)F)cc21 [Example 91, (S)-1-benzyl-N-(4-methyl-5-oxo-2-(trifluoromethyl)-5,6,7,8-tetrahydro-4H-pyrazolo[1,5-a][1,3]diazepin-6-yl)-1H-1,2,4-triazole-3-carboxamide]
The pKi of the first is 0.46 log units lower: 7.11 for the first, 7.57 for the second.

First: Cc1cc(F)c2c(c1)OC[C@H](NC(=O)c1n[nH]c3c1C[C@@H](C(F)(F)F)CC3)C(=O)N2 [Example 88, (S)—N—((S)-6-fluoro-8-methyl-4-oxo-2,3,4,5-tetrahydrobenzo[b][1,4]oxazepin-3-yl)-5-(trifluoromethyl)-4,5,6,7-tetrahydro-1H-indazole-3-carboxamide]
Second: Cc1cc(F)c2c(c1)OC[C@H](NC(=O)c1n[nH]c3c1C[C@H](C(F)(F)F)CC3)C(=O)N2 [Example 89, (R)—N—((S)-6-fluoro-8-methyl-4-oxo-2,3,4,5-tetrahydrobenzo[b][1,4]oxazepin-3-yl)-5-(trifluoromethyl)-4,5,6,7-tetrahydro-1H-indazole-3-carboxamide]
The pKi of the first is 0.52 log units higher: 7.78 for the first, 7.26 for the second.

`CN1C(=O)C(NC(=O)c2nnc(Cc3ccccc3)[nH]2)CCCn2nccc21` (stereo not shown) [Example 93, 5-benzyl-N-(4-methyl-5-oxo-4,5,6,7,8,9-hexahydropyrazolo[1,5-a][1,3]diazocin-6-yl)-4H-1,2,4-triazole-3-carboxamide] and `CN1C(=O)C(NC(=O)c2nnc(Cc3ccccc3)[nH]2)CCCn2cncc21` (stereo not shown) [Example 102, 5-benzyl-N-(1-methyl-2-oxo-1,2,3,4,5,6-hexahydroimidazo[1,5-a][1,3]diazocin-3-yl)-4H-1,2,4-triazole-3-carboxamide] are within 0.2 log units of each other in pKi: 6.42 for the first, 6.47 for the second.

`CN1C(=O)C(NC(=O)c2ncn(Cc3ccccc3)n2)CCCn2nccc21` (stereo not shown) [Example 94, 1-benzyl-N-(4-methyl-5-oxo-4,5,6,7,8,9-hexahydropyrazolo[1,5-a][1,3]diazocin-6-yl)-1H-1,2,4-triazole-3-carboxamide] and `CN1C(=O)C(NC(=O)c2ncn(Cc3ccccc3)n2)CCCn2cncc21` (stereo not shown) [Example 103, 1-benzyl-N-(1-methyl-2-oxo-1,2,3,4,5,6-hexahydroimidazo[1,5-a][1,3]diazocin-3-yl)-1H-1,2,4-triazole-3-carboxamide] are within 0.2 log units of each other in pKi: 7.03 for the first, 6.91 for the second.

Compared with `CC(c1ccccc1)c1nnc(C(=O)NC2CCCn3nccc3N(C)C2=O)[nH]1` (stereo not shown) [Example 95, N-(4-methyl-5-oxo-4,5,6,7,8,9-hexahydropyrazolo[1,5-a][1,3]diazocin-6-yl)-5-(1-phenylethyl)-4H-1,2,4-triazole-3-carboxamide], `CC(c1ccccc1)c1nnc(C(=O)N[C@H]2CCn3nccc3N(C)C2=O)[nH]1` (stereo partly drawn) [Example 100, N—((S)-4-methyl-5-oxo-5,6,7,8-tetrahydro-4H-pyrazolo[1,5-a][1,3]diazepin-6-yl)-5-(1-phenylethyl)-4H-1,2,4-triazole-3-carboxamide] is 1.35 log units higher in pKi: 5.37 for the first, 6.72 for the second.

First: CN1C(=O)C(NC(=O)c2nnc(Cc3ccc(F)cc3)[nH]2)CCCn2nccc21 (stereo not shown) [Example 96, 5-(4-fluorobenzyl)-N-(4-methyl-5-oxo-4,5,6,7,8,9-hexahydropyrazolo[1,5-a][1,3]diazocin-6-yl)-4H-1,2,4-triazole-3-carboxamide]
Second: CN1C(=O)[C@@H](NC(=O)c2nnc(Cc3ccc(F)cc3)[nH]2)CCn2nccc21 [Example 98, (S)-5-(4-fluorobenzyl)-N-(4-methyl-5-oxo-5,6,7,8-tetrahydro-4H-pyrazolo[1,5-a][1,3]diazepin-6-yl)-4H-1,2,4-triazole-3-carboxamide]
The pKi of the first is 1.05 log units lower: 6.10 for the first, 7.15 for the second.

First: CN1C(=O)C(NC(=O)c2nnc(Cc3cccc(F)c3F)[nH]2)CCCn2nccc21 (stereo not shown) [Example 97, 5-(2,3-difluorobenzyl)-N-(4-methyl-5-oxo-4,5,6,7,8,9-hexahydropyrazolo[1,5-a][1,3]diazocin-6-yl)-4H-1,2,4-triazole-3-carboxamide]
Second: CN1C(=O)[C@@H](NC(=O)c2nnc(Cc3cccc(F)c3F)[nH]2)CCn2nccc21 [Example 99, (S)-5-(2,3-difluorobenzyl)-N-(4-methyl-5-oxo-5,6,7,8-tetrahydro-4H-pyrazolo[1,5-a][1,3]diazepin-6-yl)-4H-1,2,4-triazole-3-carboxamide]
The pKi of the first is 0.79 log units lower: 6.67 for the first, 7.46 for the second.

Compared with `CN1C(=O)[C@@H](NC(=O)c2cc(Oc3ccccc3)ccn2)CCn2nccc21` [Example 101, (S)—N-(4-methyl-5-oxo-5,6,7,8-tetrahydro-4H-pyrazolo[1,5-a][1,3]diazepin-6-yl)-4-phenoxypicolinamide], `CN1C(=O)[C@@H](NC(=O)c2cc3c(cn2)COC3(C)CC(F)(F)F)CCn2nccc21` (stereo partly drawn) [Example 106, 1-methyl-N—((S)-4-methyl-5-oxo-5,6,7,8-tetrahydro-4H-pyrazolo[1,5-a][1,3]diazepin-6-yl)-1-(2,2,2-trifluoroethyl)-1,3-dihydrofuro[3,4-c]pyridine-6-carboxamide] is 0.64 log units lower in pKi: 6.72 for the first, 6.08 for the second.

First: CN1C(=O)C(NC(=O)c2ncn(Cc3ccccc3)n2)CCCn2nc(C3CC3)cc21 (stereo not shown) [Example 104, 1-benzyl-N-(2-cyclopropyl-4-methyl-5-oxo-4,5,6,7,8,9-hexahydropyrazolo[1,5-a][1,3]diazocin-6-yl)-1H-1,2,4-triazole-3-carboxamide]
Second: CN1C(=O)C(NC(=O)c2nnc(Cc3ccccc3)[nH]2)CCCn2nc(C3CC3)cc21 (stereo not shown) [Example 105, 5-benzyl-N-(2-cyclopropyl-4-methyl-5-oxo-4,5,6,7,8,9-hexahydropyrazolo[1,5-a][1,3]diazocin-6-yl)-4H-1,2,4-triazole-3-carboxamide]
The pKi of the first is 0.25 log units higher: 6.83 for the first, 6.58 for the second. The first binds more tightly here.

`Cc1cnn2c1N(C)C(=O)C(NC(=O)c1ncn(Cc3ccccc3)n1)CC2` (stereo not shown) [Example 107, 1-benzyl-N-(3,4-dimethyl-5-oxo-5,6,7,8-tetrahydro-4H-pyrazolo[1,5-a][1,3]diazepin-6-yl)-1H-1,2,4-triazole-3-carboxamide] and `CN1C(=O)C(NC(=O)c2ncn(Cc3ccccc3)n2)CCn2nc3ccccc3c21` (stereo not shown) [Example 110, 1-benzyl-N-(1-methyl-2-oxo-2,3,4,5-tetrahydro-1H-[1,3]diazepino[1,2-b]indazol-3-yl)-1H-1,2,4-triazole-3-carboxamide] are within 0.2 log units of each other in pKi: 7.16 for the first, 7.19 for the second.

`CN1C(=O)C(NC(=O)c2nnc(Cc3ccccc3)[nH]2)CCn2nc3ccccc3c21` (stereo not shown) [Example 108, 5-benzyl-N-(1-methyl-2-oxo-2,3,4,5-tetrahydro-1-[1,3]diazepino[1,2-b]indazol-3-yl)-4H-1,2,4-triazole-3-carboxamide] and `CN1C(=O)C(NC(=O)c2nnc(Cc3ccccc3)[nH]2)CCn2c1nc1ccccc12` (stereo not shown) [Example 109, 5-benzyl-N-(1-methyl-2-oxo-2,3,4,5-tetrahydro-1H-benzo[4,5]imidazo[1,2-a][1,3]diazepin-3-yl)-4H-1,2,4-triazole-3-carboxamide] are within 0.2 log units of each other in pKi: 6.88 for the first, 6.91 for the second.

`CN1C(=O)C(NC(=O)c2ncn(Cc3ccccc3)n2)CCn2c1nc1ccccc12` (stereo not shown) [Example 111, 1-benzyl-N-(1-methyl-2-oxo-2,3,4,5-tetrahydro-1H-benzo[4,5]imidazo[1,2-a][1,3]diazepin-3-yl)-1H-1,2,4-triazole-3-carboxamide] gave a pKi of 6.90.

Same assay, conditions: read-out: RIP1 Ki

`CN1C(=O)[C@@H](NC(=O)c2nnc3ccc(C(F)(F)C(F)(F)F)nn23)COc2ccccc21` [Example 114, (S)—N-(5-methyl-4-oxo-2,3,4,5-tetrahydrobenzo[b][1,4]oxazepin-3-yl)-6-(perfluoroethyl)-[1,2,4]triazolo[4,3-b]pyridazine-3-carboxamide] was tested, and the pKi was 7.17.
